Measurements: US12391646B2, “Using adiponectin receptor agonists to treat inflammation and bone diseases in diabetes” (Trustees of Tufts College, priority 2020, dated 2025)

How the values were obtained:
[1] = cited from earlier work
RAW 264.7 cells = assay: CCK-8 cell viability assay, Example 2; conditions: 2 days, compared with vehicle-treated group
Protocol: RAW 264.7 cells were treated with receptor activator of nuclear factor KB ligand (RANKL) (100 ng/ml) for 2 days with or without AdipoRon (20 μM) or AdipoAI (5 μM) for another 2 days. […] (C) The CCK-8 analysis of RAW 264.7 cells treated with 20 μM AdipoRon or 5 μM AdipoAI for 48 h. (D) The CCK-8 analysis of RAW 264.7 cells' proliferation at different doses of APR and AdipoAI. Cells were treated with 100 ng/ml RANKL for 2 days with or without AdipoRon (5, 20 μM) or AdipoAI (5, 20 μM) every 2 days for 4 days. […] Data are shown as mean±SD., compared with the vehicle-treated group, *P<0.05. **P<0.01. ***P<0.001.
RAW 264.7 cells (2×10^3 cells/well) were seeded in 96-well plates and treated with or without AdipoRon or AdipoAI for 48 hours in a humidified chamber at 37° C. in 5% CO2 and air. Cell viability was determined with the Cell Counting Kit-8 (CCK-8 kit, Dojindo, Santa Clara, CA, USA) following the manufacturer's recommendations. Briefly, CCK-8 solution (10 μL) was added to each well and cells were incubated in dark for 3 hours. Cell viability was determined by measuring the absorbance at 450 nm.

[2] = test system: mice with LPS-induced endotoxemia; assay: LPS-induced endotoxemia in WT mice; format: in vivo, C57BL/6 mice
Protocol: FIG. 4 AdipoAI protects against LPS-induced endotoxemia. Endotoxemia was induced in WT mice by intraperitoneal injection with LPS ([…]), and control littermates were administered with equivalent volumes of PBS. APR or AdipoAI were orally gavaged into mice for 24 hours before LPS challenge and control animals were administered with equivalent volumes of DMSO. (a) mRNA expression levels of pro-inflammatory cytokines in lung, spleen, liver and WAT were measured by qRT-PCR and normalized with GAPDH mRNA levels. Data are shown as mean±SEM (n=6). (b) Survival curve of mice with endotoxemia (n=12). (c) Serum levels of IL-6 and IL-1β were measured by ELISA. Data are expressed as mean±SEM (n=6). (d) Histopathology for lung, spleen, liver and WAT tissues isolated from APR- or AdipoAI-treated mice 24 h before LPS challenge (n=6). Upper panel: Hematoxylin and cosin staining; Lower panel: Immunohistochemical staining for macrophage marker F4/80. Red arrow indicates F4/80 positive cells. One-way ANOVA test for multiple-group comparisons, * vs. DMSO+PBS group, # vs. DMSO+LPS group. */#P<0.05, significant differences between each indicated group. ns, not significant.
The Ethics Committee on the Use and Care of Animals at Tufts University approved the study protocol (Boston, MA, USA). The animals received humane care according to the criteria outlined in the Guide for the Care and Use of Laboratory Animals prepared by the National Academy of Sciences and published by the National Institutes of Health. All experiments involving animals or animal tissue are reported in compliance with the guidelines of ARRIVE and BJP (Kilkenny et al., 2010; McGrath and Lilley, 2015). Experimental protocols and design adhere to BJP guidelines (Curtis et al., 2015). Wild-type (WT, C57BL/6J, Jax #000664), DIO (Jax #380050), and APN KO (Jax #008195) mice were purchased from the Jackson Laboratory. The DIO mice were fed with a high-fat diet (containing 60% kcal from fat; Jackson Laboratory) at 6 weeks of age and later. The WT mice were fed with ordinary diet as normal chow (NC)-fed mice, and APN KO mice were maintained and fed with an NC diet as previously described (Tu et al., 2011). For the LPS-induced endotoxemia model, male C57BL/6 mice aged 8 weeks received oral gavage with APR (50 mg/kg body weight) or AdipoAI (25 mg/kg body weight) for 24 h before by LPS (20 mg/kg body weight) treatment which was administered intraperitoneally whereas control animals were treated with equivalent volumes of normal PBS. Mouse survival in each group was monitored and recorded up to 84 h. All mice were killed at 1 h for detection of activation of inflammatory genes, at 6 h for determination of inflammatory factors in serum, and at 24 h for histological evaluation. Animal data were excluded from experiments based on pre-established criteria of visible abnormal tissue structure during sample harvest or other health issues, including fighting wounds.

LPS-induced BMMs = assay: ELISA of IL-6 and IL-1β in supernatants of LPS-induced BMMs; format: cell-based, C57BL/6J mice; conditions: AdipoAI 5 μM 24 h then LPS 6 h
Protocol: FIG. 2 AdipoAI suppresses LPS-stimulated inflammatory responses in macrophages. (a) Raw264.7 cells or (b) BMMs were pretreated with APR (20 μM) or AdipoAI (5 μM) for 24 h followed by incubation with LPS (100 ng/mL) for additional 6 h for the measurement of IL-6 and IL-1β in supernatants by ELISA. Data were expressed as the mean±SEM at five biological independent experiments. One-way ANOVA test for multiple-group comparisons, * vs. LPS group, *P<0.05, significant differences between each indicated group. (c) PEMs were isolated from C57BL/6J mice (n=5 mice/group) were injected i.p. with ImL 4% thioglycolate solution or AdipoAI (25 mg/kg) for the measurement of IL-6 and IL-1β. The amounts of IL-6 and IL-1β in supernatant were measured by ELISA. Data were expressed as the mean±SEM (n=5). Two-tailed Student's t-test for two groups, *P<0.05, significant differences between each indicated group. (d-f) Impact of AdipoAI on basal (d) and LPS-induced expression of an array of proinflammatory cytokines, chemokines, and receptors (e,f) in Raw264.7 cells (4 groups and 3 biological replicates/group). Data analyses were performed according to the manufacturer's instructions with their web-based software package (www.qiagen.com/us/shop/genes-and-pathways/data-analysis-center overview-page/). […]

[3] = test system: LPS-stimulated bone marrow-derived macrophages (BMMs); assay: qRT-PCR of IL-6 and IL-1β mRNA in LPS-stimulated BMMs; format: cell-based, C57BL/6J mice; conditions: AdipoAI 5 μM compared with compound 5 (5 μM) and APR (20 μM)

Row | SMILES | solubility [1] | number of RAW 264.7 cells (CCK-8) at 20 μM (RAW 264.7 cells) | serum levels of IL-6 and IL-1β ([2]; 6 h post-LPS administration) | lung histopathology ([2]; 24 h, LPS-challenged mice) | survival rate ([2]; 84 h post-LPS challenge, vehicle 12.5%) [%] | LPS-induced spleen, liver and WAT injury and inflammatory responses ([2]; LPS-challenged mice) | c-Maf mRNA and protein levels in lung, spleen, liver and WAT ([2]; LPS-challenged mice, qPCR and IHC) | expression of TNF-α in tissues ([2]; LPS-induced endotoxemia mice (sentence also covers DIO mice)) | mRNA levels of proinflammatory genes in lung, spleen, WAT, liver ([2]; oral gavage 24 h before LPS challenge) | IL-6 and IL-1β protein levels (ELISA) (LPS-induced BMMs) | inhibition of LPS-stimulated IL-6 and IL-1β expression in BMMs [3]
1 | O=C(COc1ccc(C(=O)c2ccccc2)cc1)NC1CCN(Cc2ccccc2)CC1 [AdipoRon, reference compound] | relatively low solubility | did not reduce the number of RAW 264.7 cells |  |  |  |  |  |  |  |  | 
2 | COc1ccc(CN2CCC(NC(=O)COc3ccc(C(=O)c4ccc(Cl)cc4)cc3)CC2)cc1 [Compound 3] |  |  | reduced serum levels of pro-inflammatory cytokines IL-6 and IL-1β | fewer lung lesions and decreased inflammatory cell infiltration | 40 | alleviated | decreased | did not inhibit the expression of TNF-α | decreased mRNA levels of proinflammatory genes | decreased IL-6 and IL-1β protein levels | strongest inhibitory effects
